In PubChem BioAssay (NCI):
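How tested: cells in 96-well plates exposed to compound for 48 hours at five concentrations. Here, GI50 denotes the concentration required for 50% inhibition of growth. Definition used: TGI = concentration required for complete inhibition of growth.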

How the values were obtained:
Experiment in all cases: NCI tumour cell line growth inhibition, 48 h
[1] = test system: 786-0 renal
[2] = test system: A498 renal
[3] = test system: A549 NSCLC
[4] = test system: ACHN renal
[5] = test system: BT-549 breast
[6] = test system: CAKI-1 renal
[7] = test system: CCRF-CEM leukemia
[8] = test system: COLO 205 colon
[9] = test system: DU-145 prostate
[10] = test system: EKVX NSCLC
[11] = test system: HCC-2998 colon
[12] = test system: HCT-116 colon
[13] = test system: HCT-15 colon
[14] = test system: HL-60(TB) leukemia
[15] = test system: HOP-62 NSCLC
[16] = test system: HOP-92 NSCLC
[17] = test system: HS 578T breast
[18] = test system: HT29 colon
[19] = test system: IGROV1 ovarian
[20] = test system: K-562 leukemia
[21] = test system: KM12 colon
[22] = test system: LOX IMVI melanoma
[23] = test system: M14 melanoma
[24] = test system: MALME-3M melanoma
[25] = test system: MCF7 breast
[26] = test system: MDA-MB-231 breast
[27] = test system: MDA-MB-435
[28] = test system: MOLT-4 leukemia
[29] = test system: NCI-H226 lung
[30] = test system: NCI-H23 lung
[31] = test system: NCI-H460 lung
[32] = test system: NCI-H522 lung
[33] = test system: NCI/ADR-RES ovarian
[34] = test system: OVCAR-4 ovarian
[35] = test system: OVCAR-5 ovarian
[36] = test system: OVCAR-8 ovarian
[37] = test system: PC-3 prostate
[38] = test system: RPMI-8226 leukemia
[39] = test system: RXF 393 renal
[40] = test system: SF-268 CNS
[41] = test system: SF-295 CNS
[42] = test system: SF-539 CNS
[43] = test system: SK-MEL-2 melanoma
[44] = test system: SK-MEL-28 melanoma
[45] = test system: SK-MEL-5 melanoma
[46] = test system: SK-OV-3 ovarian
[47] = test system: SN12C renal
[48] = test system: SNB-19 CNS
[49] = test system: SNB-75 CNS
[50] = test system: SR leukemia
[51] = test system: SW-620 colon
[52] = test system: T-47D breast
[53] = test system: TK-10 renal
[54] = test system: U251 CNS
[55] = test system: UACC-257 melanoma
[56] = test system: UACC-62 melanoma
[57] = test system: UO-31 renal

## Cc1ccc(-c2nnc(SCc3ccc(O)c4ncccc34)n2-c2ccccc2)cc1
[1]
  GI50: 0.509 µM
  TGI: 26.7 µM
[2]
  GI50: 1.5 µM
  TGI: 13.2 µM
[3]
  GI50: 0.366 µM
  TGI: > 100 µM
[4]
  GI50: 0.144 µM
  TGI: 8.02 µM
[5]
  GI50: 0.201 µM
  TGI: > 21.7 µM
[6]
  GI50: 0.312 µM
  TGI: 7.79 µM
[7]
  GI50: 0.0949 µM
  TGI: > 100 µM
[8]
  GI50: 1.44 µM
  TGI: 6.09 µM
[9]
  GI50: 0.298 µM
  TGI: > 100 µM
[10]
  GI50: 0.395 µM
  TGI: > 60.8 µM
[11]
  GI50: 0.326 µM
  TGI: > 100 µM
[12]
  GI50: 0.0467 µM
  TGI: > 35.3 µM
[13]
  GI50: 0.0666 µM
  TGI: > 100 µM
[14]
  GI50: 0.161 µM
  TGI: > 39.8 µM
[15]
  GI50: 0.345 µM
  TGI: 2.63 µM
[16]
  GI50: 0.195 µM
  TGI: 1.25 µM
[17]
  GI50: 0.236 µM
  TGI: 2 µM
[18]
  GI50: 3.78 µM
  TGI: > 100 µM
[19]
  GI50: 0.284 µM
  TGI: > 100 µM
[20]
  GI50: 0.217 µM
  TGI: > 100 µM
[21]
  GI50: 0.294 µM
  TGI: > 100 µM
[22]
  GI50: 0.206 µM
  TGI: 3.97 µM
[23]
  GI50: 0.166 µM
  TGI: 3.24 µM
[24]
  GI50: 0.353 µM
  TGI: 6.67 µM
[25]
  GI50: 0.0819 µM
  TGI: > 100 µM
[26]
  GI50: 0.439 µM
  TGI: 24.9 µM
[27]
  GI50: 0.11 µM
  TGI: > 100 µM
[28]
  GI50: 0.196 µM
  TGI: > 100 µM
[29]
  GI50: 0.973 µM
  TGI: > 100 µM
[30]
  GI50: 0.254 µM
  TGI: > 39.8 µM
[31]
  GI50: 0.0382 µM
  TGI: 1.58 µM
[32]
  GI50: 0.305 µM
  TGI: 4.24 µM
[33]
  GI50: 0.147 µM
  TGI: 2.27 µM
[34]
  GI50: 0.431 µM
  TGI: > 100 µM
[35]
  GI50: 1.13 µM
  TGI: > 100 µM
[36]
  GI50: 0.175 µM
  TGI: 2.14 µM
[37]
  GI50: 0.164 µM
  TGI: > 100 µM
[38]
  GI50: 0.232 µM
  TGI: > 100 µM
[39]
  GI50: 0.399 µM
  TGI: 24 µM
[40]
  GI50: 0.0906 µM
  TGI: 10.9 µM
[41]
  GI50: 0.265 µM
  TGI: 4.27 µM
[42]
  GI50: 0.272 µM
  TGI: 3.16 µM
[43]
  GI50: 0.276 µM
  TGI: 0.875 µM
[44]
  GI50: 0.376 µM
  TGI: > 100 µM
[45]
  GI50: 0.337 µM
[46]
  GI50: 0.37 µM
  TGI: 4.05 µM
[47]
  GI50: 0.329 µM
  TGI: > 100 µM
[48]
  GI50: 0.231 µM
  TGI: 31.1 µM
[49]
  GI50: 0.248 µM
  TGI: 2.68 µM
[50]
  GI50: 0.0782 µM
  TGI: > 100 µM
[51]
  GI50: 0.192 µM
  TGI: > 100 µM
[52]
  GI50: 0.289 µM
  TGI: 3.53 µM
[53]
  GI50: 0.249 µM
  TGI: 4.4 µM
[54]
  GI50: 0.0989 µM
  TGI: 1.74 µM
[55]
  GI50: 0.388 µM
  TGI: 4.22 µM
[56]
  GI50: 0.347 µM
  TGI: 2.21 µM
[57]
  GI50: 0.155 µM
  TGI: 1.26 µM

## COc1ccc(/C=N\NC(=O)c2ccc3nc(-c4ccc(Br)cc4)[nH]c3c2)cc1
[1]
  GI50: 2.05 µM
  TGI: 4.2 µM
[2]
  GI50: 2.26 µM
  TGI: 5.25 µM
[3]
  GI50: 2.42 µM
  TGI: 6.03 µM
[4]
  GI50: 2.27 µM
  TGI: 6.22 µM
[5]
  GI50: 2.64 µM
  TGI: 7.06 µM
[6]
  GI50: 2.31 µM
  TGI: 6.67 µM
[7]
  GI50: 6.91 µM
  TGI: > 100 µM
[8]
  GI50: 1.94 µM
  TGI: 5.36 µM
[9]
  GI50: 3.07 µM
  TGI: 9.39 µM
[10]
  GI50: 2.22 µM
  TGI: 5.27 µM
[11]
  GI50: 3.06 µM
  TGI: 9.13 µM
[12]
  GI50: 2.65 µM
  TGI: 6.07 µM
[13]
  GI50: 3.7 µM
  TGI: 22.9 µM
[14]
  GI50: 36.6 µM
  TGI: > 100 µM
[15]
  GI50: 1.87 µM
  TGI: 4.21 µM
[16]
  GI50: 1.9 µM
  TGI: 4.65 µM
[17]
  GI50: 2.34 µM
  TGI: 5.47 µM
[18]
  GI50: 1.7 µM
  TGI: 3.3 µM
[19]
  GI50: 2.22 µM
  TGI: 7.24 µM
[20]
  GI50: 2.89 µM
  TGI: 10.4 µM
[21]
  GI50: 3.19 µM
  TGI: 12.8 µM
[22]
  GI50: 1.93 µM
  TGI: 4.17 µM
[23]
  GI50: 2.63 µM
  TGI: 7.47 µM
[24]
  GI50: 1.76 µM
  TGI: 3.79 µM
[25]
  GI50: 1.92 µM
  TGI: 5.81 µM
[26]
  GI50: 2.43 µM
  TGI: 5.93 µM
[27]
  GI50: 2.91 µM
  TGI: 8.11 µM
[28]
  GI50: 4.3 µM
  TGI: > 100 µM
[29]
  GI50: 2.65 µM
  TGI: 16.8 µM
[30]
  GI50: 2.43 µM
  TGI: 6.05 µM
[31]
  GI50: 1.74 µM
  TGI: 3.37 µM
[32]
  GI50: 2.59 µM
  TGI: 11.2 µM
[33]
  GI50: 17.8 µM
  TGI: > 100 µM
[34]
  GI50: 2.14 µM
  TGI: 5.16 µM
[35]
  GI50: 2.68 µM
  TGI: 7.27 µM
[36]
  GI50: 2.2 µM
  TGI: 5.16 µM
[37]
  GI50: 1.79 µM
  TGI: 3.72 µM
[38]
  GI50: 2.12 µM
  TGI: 8.38 µM
[39]
  GI50: 1.62 µM
  TGI: 3.49 µM
[40]
  GI50: 2.31 µM
  TGI: 5.93 µM
[41]
  GI50: 1.99 µM
  TGI: 4.27 µM
[42]
  GI50: 1.76 µM
  TGI: 3.47 µM
[44]
  GI50: 1.98 µM
  TGI: 4.1 µM
[45]
  GI50: 2.03 µM
  TGI: 4.38 µM
[46]
  GI50: 2.37 µM
  TGI: 15.5 µM
[47]
  GI50: 2.4 µM
  TGI: 5.94 µM
[48]
  GI50: 2.81 µM
  TGI: 7.39 µM
[49]
  GI50: 1.93 µM
  TGI: 4.69 µM
[50]
  GI50: 2.1 µM
  TGI: 6.28 µM
[51]
  GI50: 2.17 µM
  TGI: 4.64 µM
[52]
  GI50: 1.85 µM
  TGI: 4.31 µM
[53]
  GI50: 2.38 µM
  TGI: 5.06 µM
[54]
  GI50: 1.94 µM
  TGI: 3.55 µM
[55]
  GI50: 2.14 µM
  TGI: 4.78 µM
[56]
  GI50: 2.51 µM
  TGI: 7.2 µM
[57]
  GI50: 1.7 µM
  TGI: 5.44 µM
